The source of these data is US20250026721A1, “COMPOUNDS AND METHODS FOR MODULATING RAS-PI3K” (Vividion Therapeutics, Inc., priority 2023, published 2025).

Assay [1] relates to pAKT(S473) in FaDu cell line. In words: In vitro Phospho-AKT(S473) HTRF analysis in FaDu cells. Type of assay: cell-based. The conditions noted are these: Homo sapiens, 0.5 h; for IC50: FaDu cells, 30 minutes at 37° C.; for Emax: FaDu, read-out: FaDu pAKT Imax % control. The gist of the method: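 FaDu or H358 cells were plated overnight in medium with 1% FBS, then exposed to a compound dose response for 30 minutes at 37° C. Phospho-AKT(S473) levels were measured by HTRF.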

Assay [2] relates to pAKT(S473) in H358 cell line. Nature of the assay: In vitro Phospho-AKT(S473) HTRF analysis in H358 cells. The conditions noted are these: Homo sapiens, NCI-H358, 0.5 h; for IC50: H358 cells, 30 minutes at 37° C.; for Emax: read-out: H358 pAKT Imax % control. Type of assay: cell-based. The protocol:
Example 5. In Vitro Phosgho-AKT(S473) Analysis
Functional activity of the compounds to inhibit pAKT were assessed in FaDu or H358 cell lines as indicated below.
• Complete Media • FBS, Corning catalog #35-010-CV • Anti-Anti, Gibco catalog #15240-062 • 96 well plate, Corning catalog #3610 • TrypLE, Gibco catalog #12604013 • Phospho-AKT(S473) HTRF kit, Cisbio catalog #64AKSPET
Cells were detached from the tissue culture flask with TrypLE. The cells were pelleted at 500×g for 5 min, TrypLe was removed and then resuspended in the necessary volume of media+1% FBS to give the appropriate cell density (17,500 cells/mL for FaDu; 20,000 cells/mL for H358). 100 μL of cell suspension/well was dispensed into the 96-well plate while keeping the outer wells of the plate free of cells and filled with PBS to prevent evaporation of interior wells. The plate was incubated at 37° C. and allowed to adhere overnight. The cells were treated with a dose response of compound and incubated at 37° C. for 30 minutes. The cells were then processed and pAKT(S473) levels were assessed following the specifications of the Cisbio HTRF kit.
(In general: TR-FRET usually uses a lanthanide donor and a delayed reading to cut background.)

The target in the next assay is T1, PIK3CA (Homo sapiens, UniProt P42336).
T1 construct: endogenous in cells; host or cells: Jurkat cell lysate
T1 sequence (P42336 whole entry): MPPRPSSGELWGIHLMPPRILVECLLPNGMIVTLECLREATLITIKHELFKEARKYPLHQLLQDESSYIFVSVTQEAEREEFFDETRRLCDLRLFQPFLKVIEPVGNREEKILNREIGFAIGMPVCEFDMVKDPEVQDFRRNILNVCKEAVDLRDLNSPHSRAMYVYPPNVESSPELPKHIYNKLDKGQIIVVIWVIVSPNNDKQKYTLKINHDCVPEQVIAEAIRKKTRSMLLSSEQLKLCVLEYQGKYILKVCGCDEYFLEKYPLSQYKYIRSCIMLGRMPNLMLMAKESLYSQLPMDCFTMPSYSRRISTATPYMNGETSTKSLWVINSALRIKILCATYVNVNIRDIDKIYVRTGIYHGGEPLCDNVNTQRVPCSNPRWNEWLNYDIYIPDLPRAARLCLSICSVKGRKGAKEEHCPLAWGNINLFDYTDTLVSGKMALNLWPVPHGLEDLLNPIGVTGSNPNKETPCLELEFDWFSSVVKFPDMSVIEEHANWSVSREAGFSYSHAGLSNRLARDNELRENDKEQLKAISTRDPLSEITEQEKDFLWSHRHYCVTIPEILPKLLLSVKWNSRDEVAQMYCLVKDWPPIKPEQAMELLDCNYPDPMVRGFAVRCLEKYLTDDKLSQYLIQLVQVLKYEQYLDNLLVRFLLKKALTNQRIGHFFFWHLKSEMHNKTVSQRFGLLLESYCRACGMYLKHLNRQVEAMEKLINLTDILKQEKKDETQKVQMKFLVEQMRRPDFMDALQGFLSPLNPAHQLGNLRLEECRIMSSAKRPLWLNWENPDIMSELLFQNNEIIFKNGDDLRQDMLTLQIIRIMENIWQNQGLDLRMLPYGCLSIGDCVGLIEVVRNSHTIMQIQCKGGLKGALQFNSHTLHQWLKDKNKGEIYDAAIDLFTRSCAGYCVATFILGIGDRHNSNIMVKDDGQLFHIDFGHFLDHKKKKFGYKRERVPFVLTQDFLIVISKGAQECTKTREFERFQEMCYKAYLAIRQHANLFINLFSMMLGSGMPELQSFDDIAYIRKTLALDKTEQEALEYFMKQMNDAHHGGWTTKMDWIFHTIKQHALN
T1 sequence (P27986 whole entry partner): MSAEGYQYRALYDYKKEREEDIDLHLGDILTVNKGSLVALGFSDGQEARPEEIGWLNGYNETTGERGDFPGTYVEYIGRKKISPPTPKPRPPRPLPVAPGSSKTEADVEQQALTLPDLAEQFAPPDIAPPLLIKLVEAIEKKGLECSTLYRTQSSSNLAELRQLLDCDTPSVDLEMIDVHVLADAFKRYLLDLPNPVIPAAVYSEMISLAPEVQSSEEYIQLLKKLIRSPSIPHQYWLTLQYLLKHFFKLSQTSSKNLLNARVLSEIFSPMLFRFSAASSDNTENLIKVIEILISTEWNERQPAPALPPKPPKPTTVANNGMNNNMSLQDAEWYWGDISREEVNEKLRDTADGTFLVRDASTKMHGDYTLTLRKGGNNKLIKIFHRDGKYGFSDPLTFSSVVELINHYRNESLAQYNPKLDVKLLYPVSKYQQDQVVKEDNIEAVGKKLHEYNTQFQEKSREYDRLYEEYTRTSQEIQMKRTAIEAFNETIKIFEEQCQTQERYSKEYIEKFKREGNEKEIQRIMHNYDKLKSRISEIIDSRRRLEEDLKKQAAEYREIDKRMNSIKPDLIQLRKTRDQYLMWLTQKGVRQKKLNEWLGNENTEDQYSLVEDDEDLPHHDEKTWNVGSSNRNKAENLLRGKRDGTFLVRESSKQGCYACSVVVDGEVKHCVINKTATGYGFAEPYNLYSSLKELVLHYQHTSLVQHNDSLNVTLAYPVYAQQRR
In words: In vitro ELISA target engagement assay for PIK3CA in Jurkat cellular lysate (competition with PIK3CA Biotin Probe). Type of assay: binding. The conditions noted are these: 1 hour at rt, then 500 nM PIK3CA Biotin Probe, read-out: Elisa Target Engagement Assay (TE50). The gist of the method: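 Competition format in Jurkat lysate: compound (serial dilutions, top 200 μM) for 1 h at rt, then 500 nM final biotinylated PIK3CA probe for 1 h at rt. Sandwich ELISA with capture antibody and Neutravidin-HRP luminescence read-out measured probe-labelled PIK3CA, giving TE50.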

With `C[C@H](/C=C\S(C)(=O)=O)NC(=O)[C@]1(F)CCN(C(=O)[C@H]2CN(CC(F)(F)F)C[C@H]2c2ccccc2Cl)[C@@H](C)C1` (single isomer, unassigned) [Compound 302, (2*S,4*S)-1-((3R,4R)-4-(2-chlorophenyl)-1-(2,2,2-trifluoroethyl)pyrrolidine-3-carbonyl)-4-fluoro-2-methyl-N-((R,Z)-4-(methylsulfonyl)but-3-en-2-yl)piperidine-4-carboxamide], the IC50 was found to be 696 nM in assay [1], 464 nM in assay [2] and 440 nM at PIK3CA. For the same compound, the Emax turned out to be 101% in assay [1] and 87.2% in assay [2].
As to `C[C@H](/C=C\S(C)(=O)=O)NC(=O)[C@@]1(F)CCCN(C(=O)[C@H]2CN(CC(F)(F)F)C[C@H]2c2ccccc2Cl)CC1` [Compound 165, (R)-1-((3R,4R)-4-(2-chlorophenyl)-1-(2,2,2-trifluoroethyl)pyrrolidine-3-carbonyl)-4-fluoro-N—((R,Z)-4-(methylsulfonyl)but-3-en-2-yl)azepane-4-carboxamide], the values for the IC50 (in assay [1]; in assay [2]; on PIK3CA) were 214 nM, 115 nM and 164 nM, respectively. In addition, the figures for the Emax in assay [1] and in assay [2] were 96.7% and 95.7%, respectively.
The corresponding values for `C[C@H](/C=C\S(C)(=O)=O)NC(=O)[C@@]1(F)CCCN(C(=O)[C@H]2CN(CC(F)(F)F)CC[C@@H]2c2ccccc2Cl)CC1` (single isomer, unassigned) [Compound 308, (R)-1-((3*R,4*S)-4-(2-chlorophenyl)-1-(2,2,2-trifluoroethyl)piperidine-3-carbonyl)-4-fluoro-N-((R,Z)-4-(methylsulfonyl)but-3-en-2-yl) azepane-4-carboxamide] are 580 nM, 408 nM, 850 nM, 93.4% and 91%.
On to `C[C@@H](/C=C\S(C)(=O)=O)NC(=O)C1(F)CCN(S(=O)(=O)c2cnc(C(F)(F)F)cc2-c2ccccc2Cl)CC1` [Compound 208, (S,Z)-1-((4-(2-chlorophenyl)-6-(trifluoromethyl)pyridin-3-yl)sulfonyl)-4-fluoro-N-(4-(methylsulfonyl)but-3-en-2-yl)piperidine-4-carboxamide], for which the IC50 amounted to 88.2 nM in assay [1], 81.6 nM in assay [2] and 53.7 nM at PIK3CA. The Emax in assay [2] stood at 95.9%.
Turning to `C[C@H](/C=C\S(C)(=O)=O)NC(=O)[C@@]1(F)CCCN(C(=O)[C@H]2CN(CC(F)F)C[C@H]2c2ccccc2Cl)CC1` [Compound 197, (R)-1-((3R,4R)-4-(2-chlorophenyl)-1-(2,2-difluoroethyl)pyrrolidine-3-carbonyl)-4-fluoro-N-((R,Z)-4-(methylsulfonyl)but-3-en-2-yl) azepane-4-carboxamide], the IC50 in assay [1] was 129 nM; in assay [2], 103 nM; on PIK3CA, 134 nM. Moreover, the Emax is 89% in assay [1] and 91.4% in assay [2].
For the compound `Cc1ccc([C@@H]2CN(CC(F)(F)F)C[C@@H]2C(=O)N2CCC[C@](F)(C(=O)N[C@H](C)/C=C\S(C)(=O)=O)CC2)c(Cl)c1` (single isomer, unassigned) [Compound 169, (R)-1-((3*R,4*R)-4-(2-chloro-4-methylphenyl)-1-(2,2,2-trifluoroethyl)pyrrolidine-3-carbonyl)-4-fluoro-N—((R,Z)-4-(methylsulfonyl)but-3-en-2-yl)azepane-4-carboxamide], the IC50 in assay [1] is 154 nM; in assay [2] it was 202 nM; at PIK3CA it was 210 nM. The Emax is 108% in assay [1] and 106% in assay [2].
Consider `C[C@H](/C=C\S(C)(=O)=O)NC(=O)[C@@]1(F)CCCN(C(=O)[C@H]2CN(Cc3ccccc3)C[C@H]2c2ccccc2Cl)CC1` (single isomer, unassigned) [Compound 305, (R)-1-((3*R,4*R)-1-benzyl-4-(2-chlorophenyl)pyrrolidine-3-carbonyl)-4-fluoro-N-((R,Z)-4-(methylsulfonyl)but-3-en-2-yl)azepane-4-carboxamide], for which the IC50 in assay [1] worked out at 428 nM; in assay [2], 396 nM; on PIK3CA it was 650 nM. Besides, the Emax in assay [1] was 94.3%; in assay [2] it was 90.7%.
The like results for `C[C@H](/C=C\S(C)(=O)=O)NC(=O)[C@@]1(F)CCCN(C(=O)[C@H]2CN(CC(F)(F)Cl)C[C@H]2c2ccccc2Cl)CC1` [Compound 195, (R)-1-((3R,4R)-1-(2-chloro-2,2-difluoroethyl)-4-(2-chlorophenyl)pyrrolidine-3-carbonyl)-4-fluoro-N-((R,Z)-4-(methylsulfonyl)but-3-en-2-yl)azepane-4-carboxamide] were, in that order, 113 nM, 123 nM, 190 nM, 96.9% and 85%.
`C[C@H](/C=C\S(C)(=O)=O)NC(=O)[C@@]1(F)CCCN(C(=O)[C@@H]2CCN(CC(F)(F)F)C[C@H]2c2ccccc2Cl)CC1` (single isomer, unassigned) [Compound 306, (R)-1-((3*R,4*R)-3-(2-chlorophenyl)-1-(2,2,2-trifluoroethyl)piperidine-4-carbonyl)-4-fluoro-N-((R,Z)-4-(methylsulfonyl)but-3-en-2-yl)azepane-4-carboxamide]: the IC50 in assay [1] amounted to 334 nM; in assay [2], 263 nM; at PIK3CA it was 310 nM. Moreover, the Emax in assay [1] worked out at 93%; in assay [2], 88%.
